Tests used:
AsPC-1 cells = assay: Cellular phospho-ERK assay, AsPC-1 cells (homozygous KRAS-G12D); format: cell-based; conditions: Homo sapiens, ASPC1, 2 h, KRAS-G12D, 2 hours, read-out: AsPC1 pERK IC50
Description: Procedure for Cellular Phospho-ERK Assay in KRAS Wild Type and Mutant (G12D, G12V) Cell Lines
MKN-1 cells (JCRB JCRB0252) containing amplified wild-type KRAS, were cultured in growth medium that contains RPMI 1640-GlutaMAX™-I (ThermoFisher Scientific 61870) containing 10% heat inactivated fetal bovine serum (ThermoFisher Scientific 10091148), 1 mM sodium pyruvate and 10 mM HEPES. PANC08.13 cells (ATCC® CRL-2551™), containing homozygous KRAS-G12D activating mutation, were cultured in growth medium made of RPMI1640-GlutaMAX™-I (ThermoFisher Scientific 61870) containing 15% heat inactivated fetal bovine serum (ThermoFisher Scientific 10091148)). AsPC-1 cells (ATCC® CRL-1682™), containing homozygous KRAS-G12D activating mutation, were cultured in T150 flask in growth medium (RPMI medium 1640-GlutaMAX™-I (ThermoFisher Scientific 61870) containing 10% fetal bovine serum (ThermoFisher Scientific 10091148)). SW620 cells (ATCC® […]), containing homozygous KRAS-G12V activating mutation, were cultured in growth medium that contains RPMI 1640-GlutaMAX™-I (ThermoFisher Scientific 61870) containing 10% heat inactivated fetal bovine serum (ThermoFisher Scientific 10091148).
Cells for the assay were harvested in growth medium after TrypLE (ThermoFisher scientific 12604021) digestion and were seeded in a 384-well collagen coated cell culture plate (Corning 356702) at a density of 10,000-15,000 cells/20 μL/well, and incubated at 37° C., 5% CO2 overnight. The compound (with 10 mM stock concentration) dose-response titrations were prepared [30 μM final ERK detection assay concentration and 1:3 dilutions, 10-point dose response] and appropriate amounts (270 nL) of test compounds were dispensed in a 384-well intermediate plate using an Echo 550 liquid handler. 30 μL/well of RPMI medium 1640-GlutaMAX™—I was added to the intermediate plate and the contents of the intermediate plate (10 μL/well) were then transferred to the 384-well collagen coated cell culture plate, which was incubated at 37° C., 5% CO2 for 2 hours. After removal of medium from the collagen coated cell culture plate, cells were lysed in lysis buffer from Alpha SureFire® Ultra™ Multiplex p-ERK and total ERK assay kit (PerkinElmer MPSU-PTERK) containing Halt™ Protease and Phosphatase inhibitor cocktail (ThermoFisher Scientific 78446) at room temperature with constant shaking at 300 rpm for 30 minutes. The cell lysates were then transferred to an OptiPlate-384 plate (PerkinElmer 6005620), and the phosphorylation of ERK (p-ERK) and total ERK levels were detected by Alpha SureFire® Ultra™ Multiplex p-EEK kit and total ERK assay kit (PerkinElmer MPSU-PTERK) following the manufacturer's protocol. Assay plates were read on a En Vision Multimode Plate Reader (PerkinElmer), and the ratio of p-ERK vs. total ERK in each well was used as the final readout. Dose response curves were analyzed using a 4-parameter logistic model to calculate IC50 values using Spotfire software.

KRAS-G12V = KRAS-G12V (Homo sapiens, UniProt P01116, G12V); assay: SOS-catalyzed nucleotide exchange assay (Procedure A, TR-FRET), KRAS-G12V; format: biochemical; conditions: nucleotide exchange, read-out: KRAS G12V GNE IC50
Chain of KRAS-G12V (P01116 with tags, fused parts or gaps isoform P01116-2 G12V): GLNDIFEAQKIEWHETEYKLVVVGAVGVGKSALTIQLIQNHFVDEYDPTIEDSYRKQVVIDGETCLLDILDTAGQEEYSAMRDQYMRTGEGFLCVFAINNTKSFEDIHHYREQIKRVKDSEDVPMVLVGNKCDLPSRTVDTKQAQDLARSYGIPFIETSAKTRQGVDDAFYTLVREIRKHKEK
Text: (§1) Procedure for SOS-Catalyzed Nucleotide Exchange Assay for KRAS-WT, G12C/D/V, G13D, HRAS, and NRAS (Procedure A)
(§2) Recombinant KRAS-G12C protein used in this assay has an additional triple mutation (C51S/C80L/C118S). Whereas KRAS-WT, G12D/V, G13D, HRAS and NRAS are in context of their WT protein sequence background. Specifically, the SOS-catalyzed nucleotide exchange assay utilizes a preformed TR-FRET complex containing a specific biotinylated RAS protein (KRAS-WT, G12C/V/D, G13D, HRAS, NRAS; described above) with Bodipy-GDP, and Terbium-streptavidin. Compounds are preincubated with this complex for 60 minutes. Subsequently, recombinant human SOS protein and unlabeled GTP are added to initiate the exchange reaction. Small molecule inhibitors stabilize the Bodipy-GDP complex whereas the untreated protein rapidly exchanges Bodipy-GDP for unlabeled GTP resulting in reduced TR-FRET signal.
(§3) To assemble the preformed TR-FRET complexes, each biotinylated RAS protein is diluted to 2 μM in an EDTA Buffer (20 mM HEPES pH 7.5, 50 mM sodium chloride, 10 mM EDTA, and 0.01% Tween) and incubated at room temperature for one hour. This mixture is then further diluted to 90 nM in an Assay Buffer (20 mM HEPES pH 7.5, 150 mM sodium chloride, 10 mM magnesium chloride, and 0.005% Tween) containing 15 nM of Terbium-Streptavidin (Invitrogen, catalog #PV3577) and 900 nM of Bodipy-GDP (Invitrogen, catalog #G22360) and incubated at room temperature for six hours. It should be noted that this preformed TR-FRET complex for each of the RAS protein were made ahead of time, aliquoted and stored at −80° C. until the day of the experiment.
(§4) Each test compound (10 mM stock in DMSO) is diluted in DMSO to make a final-10-point, 3-fold dilution and is acoustically dispensed into a 384-well assay plate (Corning, catalog #3820) using an Echo 550 (Labcyte). Each well of the assay plate receives 3 μL of a specific 3×RAS preformed TR-FRET complex and 3 μL of Assay Buffer and is incubated at room temperature for 60 minutes (preincubation time). Each well then receives 3 μL of 3×recombinant human SOS protein and GTP (Sigma, G8877) in Assay Buffer and is incubated at room temperature for 30 minutes (G13D), 60 minutes (KRAS WT/G12C/D, H/NRAS) or 90 minutes for G12V. The final reaction in each well of 9 μL consists of 3 mM GTP, specific Ras and SOS proteins in the following concentrations: KRAS-G12C/SOS=3 nM/40 nM, KRAS-WT and G12D/SOS=1 nM/40 nM, KRAS-G12V/SOS=1.25 nM/160 nM. KRAS-G13D/SOS=1.25 nM/0 nM, HRAS and NRAS=1.25 nM/40 nM.
(§5) The time-resolved fluorescence resonance energy transfer (TR-FRET) signal is measured on an Envision (PerkinElmer) plate reader: Excitation filter=340 nm; emission 1=495 nm; emission2=520 nm; dichroic mirror=D400/D505; delay time=[…]. The signal of each well is determined as the ratio of the emission at 520 nm to that at 495 nm. Percent effect of each well is determined after normalization to control wells containing DMSO (no effect) or a saturating concentration of inhibitor (max effect). The apparent effect as a function of compound concentration is fit to a four-parameter logistic equation.

KRAS-WT = KRAS-WT (Homo sapiens, UniProt P01116); assay: SOS-catalyzed nucleotide exchange assay (Procedure A, TR-FRET), KRAS-WT; format: biochemical; conditions: nucleotide exchange, read-out: KRAS WT GNE IC50
Chain of KRAS-WT (P01116 with tags, fused parts or gaps isoform P01116-2): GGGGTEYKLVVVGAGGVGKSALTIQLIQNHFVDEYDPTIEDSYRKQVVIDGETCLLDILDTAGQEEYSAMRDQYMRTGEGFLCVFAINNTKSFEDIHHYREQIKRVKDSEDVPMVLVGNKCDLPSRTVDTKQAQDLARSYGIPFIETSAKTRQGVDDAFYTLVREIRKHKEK
Text: as §1, §2, §3, §4, §5

KRAS-G12D = KRAS-G12D (Homo sapiens, UniProt P01116, G12D); assay: SOS-catalyzed nucleotide exchange assay (Procedure A, TR-FRET), KRAS-G12D; format: biochemical; conditions: nucleotide exchange, read-out: KRAS G12D GNE IC50
Chain of KRAS-G12D (P01116 with tags, fused parts or gaps isoform P01116-2 G12D): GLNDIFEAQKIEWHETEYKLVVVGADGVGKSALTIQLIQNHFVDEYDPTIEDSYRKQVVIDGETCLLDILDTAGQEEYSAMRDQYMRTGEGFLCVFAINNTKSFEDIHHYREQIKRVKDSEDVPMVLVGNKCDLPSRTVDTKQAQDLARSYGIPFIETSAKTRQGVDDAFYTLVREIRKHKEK
Text: as §1, §2, §3, §4, §5

SMILES | IC50 (AsPC-1 cells) [nM] | IC50 (KRAS-G12V) [nM] | IC50 (KRAS-WT) [nM] | IC50 (KRAS-G12D) [nM]
C[C@@]1(O)COCCN(c2nc(OC[C@@]34CCCN3C[C@H](F)C4)nc3sc4c(-c5c(C(F)F)c(C(F)(F)F)cc6[nH]ncc56)nccc4c23)C1 [Ex-61, (6S)-4-(8-(5-(difluoromethyl)-6-(trifluoromethyl)-1H-indazol-4-yl)-2-(((2R,7aS)-2-fluorotetrahydro-1H-pyrrolizin-7a(5H)-yl)methoxy)pyrido[4′,3′:4,5]thi-eno[2,3-d]pyrimidin-4-yl)-6-methyl-1,4-oxazepan-6-ol] | 1280 | 236 | 231 | 127
C[C@@]1(O)COCCN(c2nc(OC[C@@]34CCCN3C[C@H](F)C4)nc3sc4c(-c5c(-c6cc[nH]c6)c(Cl)cc6[nH]ncc56)nccc4c23)C1 [Ex-73, (6S)-4-(8-(6-chloro-5-(1H-pyrrol-3-yl)-1H-indazol-4-yl)-2-(((2R,7aS)-2-fluorotetrahydro-1H-pyrrolizin-7a(5H)-yl)methoxy)pyrido[4′,3′:4,5]thi-eno[2,3-d]pyrimidin-4-yl)-6-methyl-1,4-oxazepan-6-ol] | 1060 | 52.2 | 60.4 | 9.67
CN1CCC[C@@H]1COc1nc(N2CCOC[C@@](C)(O)C2)c2c(n1)sc1c(-c3c(C4CC4)c(C(F)(F)F)cc4[nH]ncc34)nccc12 [Ex-81, (6S)-4-(8-(5-cyclopropyl-6-(trifluoromethyl)-1H-indazol-4-yl)-2-(((R)-1-methylpyrrolidin-2-yl)methoxy)pyrido[4′,3′:4,5]thi-eno[2,3-d]pyrimidin-4-yl)-6-methyl-1,4-oxazepan-6-ol] | 1110 | 86.2 | 164 | 85.6
C[C@@H]1C[C@@H](COc2nc(N3CCOC[C@@](C)(O)C3)c3c(n2)sc2c(-c4c(C5CC5)c(C(F)(F)F)cc5[nH]ncc45)nccc23)N(C)C1 [Ex-83, (6S)-4-(8-(5-cyclopropyl-6-(trifluoromethyl)-1H-indazol-4-yl)-2-(((2S,4R)-1,4-dimethylpyrrolidin-2-yl)methoxy)pyrido[4′,3′:4,5]thi-eno[2,3-d]pyrimidin-4-yl)-6-methyl-1,4-oxazepan-6-ol] | 1360 | 103 | 130 | 80.1
CO[C@H]1C[C@@H](COc2nc(N3CCOC[C@@](C)(O)C3)c3c(n2)sc2c(-c4c(C5CC5)c(C(F)(F)F)cc5[nH]ncc45)nccc23)N(C)C1 [Ex-84, (6S)-4-(8-(5-cyclopropyl-6-(trifluoromethyl)-1H-indazol-4-yl)-2-(((2S,4S)-4-methoxy-1-methylpyrrolidin-2-yl)methoxy)pyrido[4′,3′:4,5]thi-eno[2,3-d]pyrimidin-4-yl)-6-methyl-1,4-oxazepan-6-ol] | 2890 | 847 | 1380 | 670

Now those with a lower IC50 (AsPC-1 cells), led by results:

IC50 (AsPC-1 cells) [nM] | IC50 (KRAS-G12V) [nM] | IC50 (KRAS-WT) [nM] | IC50 (KRAS-G12D) [nM] | SMILES
457 | 57.9 | 218 | 93.6 | C=C(c1c(C)cc2[nH]ncc2c1-c1nccc2c1sc1nc(OC[C@@]34CCCN3C[C@H](F)C4)nc(N3CCOC[C@@](C)(O)C3)c12)C(F)(F)F [Ex-66, (6S)-4-(2-(((2R,7aS)-2-fluorotetrahydro-1H-pyrrolizin-7a(5H)-yl)methoxy)-8-(6-methyl-5-(3,3,3-trifluoroprop-1-en-2-yl)-1H-indazol-4-yl)pyrido[4′,3′:4,5]thieno [2,3-d]pyrimidin-4-yl)-6-methyl-1,4-oxazepan-6-ol]
175 | 20.8 | 61.8 | 15 | C[C@@]1(O)COCCN(c2nc(OC[C@@]34CCCN3C[C@H](F)C4)nc3sc4c(-c5c(C6=CCC6)c(C(F)(F)F)cc6[nH]ncc56)nccc4c23)C1 [Ex-77, (6S)-4-(8-(5-(cyclobut-1-en-1-yl)-6-(trifluoromethyl)-1H-indazol-4-yl)-2-(((2R,7aS)-2-fluorotetrahydro-1H-pyrrolizin-7a(5H)-yl)methoxy)pyrido[4′,3′:4,5]thi-eno[2,3-d]pyrimidin-4-yl)-6-methyl-1,4-oxazepan-6-ol]
434 | 84.8 | 194 | 94.7 | C[C@@]1(O)COCCN(c2nc(OC[C@@]34CCCN3C[C@H](F)C4)nc3sc4c(-c5c(-c6ccco6)c(C(F)(F)F)cc6[nH]ncc56)nccc4c23)C1 [Ex-78]
592 | 32.8 | 54.6 | 31.2 | C[C@H]1C[C@@H](COc2nc(N3CCOC[C@@](C)(O)C3)c3c(n2)sc2c(-c4c(C5CC5)c(C(F)(F)F)cc5[nH]ncc45)nccc23)N(C)C1 [Ex-82, (6S)-4-(8-(5-cyclopropyl-6-(trifluoromethyl)-1H-indazol-4-yl)-2-(((2S,4S)-1,4-dimethylpyrrolidin-2-yl)methoxy)pyrido[4′,3′:4,5]thi-eno[2,3-d]pyrimidin-4-yl)-6-methyl-1,4-oxazepan-6-ol]
764 | 44.3 | 81.1 | 38.8 | CO[C@@H]1C[C@@H](COc2nc(N3CCOC[C@@](C)(O)C3)c3c(n2)sc2c(-c4c(C5CC5)c(C(F)(F)F)cc5[nH]ncc45)nccc23)N(C)C1 [Ex-85, (6S)-4-(8-(5-cyclopropyl-6-(trifluoromethyl)-1H-indazol-4-yl)-2-(((2S,4R)-4-methoxy-1-methylpyrrolidin-2-yl)methoxy)pyrido[4′,3′:4,5]thi-eno[2,3-d]pyrimidin-4-yl)-6-methyl-1,4-oxazepan-6-ol]
